In US10322123B2, “Compound for anti-cancer therapy that acts by targeting GOF mutant P53 and stimulates P73 to restore the P53 pathway signaling” (The Penn State Research Foundation, priority 2014, dated 2019):
Residues, ends and D or L forms follow the SMILES beside them. *: point of attachment. Cbz = O=C(OCc1ccccc1)*

Target: mutant p53 (Homo sapiens, UniProt P04637, P309S/R273H)
Type: cell-based
Set-up: Mutant p53 protein levels in mutant p53-expressing cancer cells treated with NSC59984; endogenous in cells; host or cells: SW480, DLD-1, Hop92, RXF393; effect on NSC59984-mediated down-regulation of mutant p53: dose or concentration left out as unconfirmed
Details: SW480 cells, MG132 with NSC59984, 16 hr
Procedure: The primary antibodies indicated in the figures were incubated with the transferred PVDF in blocking buffer at 4° C. overnight. Antibody binding was detected on PVDF with appropriate IRDye-secondary antibodies (LI-COR Biosciences, USA) by the ODYSSEY infrared imaging system.

CC(C)C[C@@H](C=O)NC(=O)[C@H](CC(C)C)NC(=O)[C@H](CC(C)C)NC(=O)OCc1ccccc1 [MG132, reference compound] (Cbz-Leu-Leu-Leu-aldehyde)
effect on NSC59984-mediated down-regulation of mutant p53: rescued
